# Key:
# [1] = system: HT-29 human colon carcinoma cells; assay: Apoptosis by morphology (acridine orange/ethidium bromide, condensed chromatin); assay type: cell-based; conditions: HT-29 cells
# Protocol: Apoptosis was measured using an assay of cell death based on morphological characteristics of apoptotic cells (i.e., condensed chromatin). Drug preparation and cell culture conditions were the same as for the SRB assay described above, except that HT-29 human colon carcinoma cells were employed/Confluent cultures were established in 12.5 cm^2 flasks by plating 0.5×10^6 cells/flask. The cultures were assayed for apoptosis by fluorescent microscopy following labeling with acridine orange and ethidium bromide. Floating and attached cells were collected by trypsinization and washed three times in PBS. One ml aliquots were centrifuged (3 g). The pellet was resuspended in 25 μl media and 1 μl of a dye mixture containing 100 μg/ml acridine orange and 100 μg/ml ethidium bromide prepared in PBS and mixed gently. Ten μl of mixture was placed on a microscope slide and covered with a 22 mm^2 coverslip and examined under 40×dry objectives using epillumination and filter combination.
# An observer blinded to the identity of the treatments scored at least 100 cells per sample. Apoptotic cells were identified by nuclear condensation of chromatin stained by the acridine orange or ethidium bromide.
# [2] = system: human colon carcinoma cell line, SW-480; assay: Growth inhibition, Sulforhodamine B (SRB) protein binding assay; assay type: cell-based; conditions: SW-480 cell line, six days continuous exposure
# Protocol: These compounds were assayed for their growth inhibitory activity on the human colon carcinoma cell line, SW-480 obtained from ATCC (Rockville, Md.), to ascertain the degree of growth inhibition. Growth inhibition of this cell line is indicative of a benefit on precancerous lesions and neoplasms. The cell line and growth assay employed for these experiments are well characterized, and are used to evaluate the anti-neoplastic properties of NSAIDs. The assay is used by the United States National Cancer Institute in its screening program for new anti-cancer drugs.
# Drug stock solutions were made in 100% DMSO then diluted with RPMI media for cell culture testing. All drug solutions were prepared fresh on the day of testing. The cultured cells were obtained at passage #99 and grown in RPMI media supplemented with 5% fetal calf serum, and 2 mM glutamine, 100 U/ml penicillin, 100 U/ml streptomycin, and 0.25 μg/ml amphotericin. The cultures were maintained in a humidified atmosphere of 95% air and 5% CO2 at 37° C. The cultures were passaged at preconfluent densities using a solution of 0.05% trypsin and 0.53 mM EDTA. Cells were plated at 1000 cells/well for 96 well flat-bottom microtiter plates.
# Tumor cell growth inhibition was assessed using the Sulforhodamine B (SRB) protein binding assay. In this assay, tumor cells were plated in 96-well plates and treated with drug-containing media for six days (continuous exposure). For each plate, 6 wells were designated as no treatment controls, six wells as vehicle (0.1% DMSO) controls, and the remaining wells for drug dilutions with three wells per drug concentration. At the end of the exposure period, the cells were fixed and stained with sulforhodamine B, a protein binding dye. The dye was then solubilized, and the optical density of the resulting solution was determined on a 96-well plate reader. The mean dye intensity of the treated wells was then divided by the mean dye intensity in the control wells (6 wells of each) to determine the effect of the drug on the cells. Dye intensity is proportional to the number of cells or amount of protein per well. The resultant “percent inhibition” value then represents the degree of growth inhibition caused by the drug.
# For each experiment, an IC50 value was determined and used for comparative purposes. This value is equivalent to the concentration of drug needed to inhibit tumor cell growth by 50%. IC50 values were obtained graphically by connecting the mean values for each drug concentration tested. Each experiment included at least three wells per drug concentration. Concentration was plotted on a log scale on the X-axis.
# [3] = target: T1, COX I (Ovis aries, UniProt P05979); assay: Cyclooxygenase (COX) inhibition, purified COX; assay type: biochemical; conditions: 100 μM test compound; purified COX from ram seminal vesicles, arachidonic acid 100 μM
# T1 construct: The COX was purified form ram seminal vesicles; from tissue; host or cells: ram seminal vesicles
# T1 sequence (P05979 25-600): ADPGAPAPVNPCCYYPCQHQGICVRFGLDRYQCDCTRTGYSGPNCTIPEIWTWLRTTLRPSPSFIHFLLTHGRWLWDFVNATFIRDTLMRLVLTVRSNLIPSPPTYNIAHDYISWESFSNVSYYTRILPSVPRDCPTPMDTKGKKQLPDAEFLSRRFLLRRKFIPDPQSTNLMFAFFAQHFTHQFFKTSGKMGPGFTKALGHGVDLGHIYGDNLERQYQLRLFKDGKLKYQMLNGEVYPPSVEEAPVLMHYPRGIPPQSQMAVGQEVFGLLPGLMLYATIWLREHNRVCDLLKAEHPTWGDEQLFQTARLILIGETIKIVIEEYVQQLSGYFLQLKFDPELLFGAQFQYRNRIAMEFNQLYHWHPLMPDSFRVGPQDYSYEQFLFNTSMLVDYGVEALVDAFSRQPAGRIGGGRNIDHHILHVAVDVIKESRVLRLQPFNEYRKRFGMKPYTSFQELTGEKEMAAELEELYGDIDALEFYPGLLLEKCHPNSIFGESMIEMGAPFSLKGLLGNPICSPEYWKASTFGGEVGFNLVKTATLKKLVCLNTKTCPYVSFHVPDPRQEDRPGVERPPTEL
# Protocol: Compounds of this invention, as well as a positive control, sulindac sulfide were to determine whether they inhibited the production of cyclooxygenase (see Table 5 below).
# COX catalyzes the formation of prostaglandins and thromboxane by the oxidative metabolism of arachidonic acid. The compounds of this invention were evaluated for inhibitory effects on purified COX. The COX was purified form ram seminal vesicles, as described by Boopathy, R. and Balasubramanian, J. 239:371-377, 1988. COX activity was assayed as described by Evans, A. T., et al., “Actions of cannabis constituents on enzymes of arachidonate metabolism anti-flammatory potential,” Biochem. Pharmacol., 36:2035-2037, 1987. Briefly, purified COX was incubated with arachidonic acid (100 μM) for 2.0 min at 37° C. in the presence or absence of test compounds. The assay was terminated buy the addition of TCA, and COX activity was determined by absorbance at 530 nm.
# [4] = system: SW-480 colon adenocarcinoma cells; assay: Apoptosis by DNA fragmentation (Cell Death Detection ELISA plus); assay type: cell-based, human; conditions: SW-480 cells, 48 hrs; for EC50: by software or estimated from effective concentration range; for DNA Fragmentation FS (100 μM): fold stimulation FS=ODmax/ODveh
# Protocol: Apoptosis was also measured based on the amount of fragmented DNA contained in cell lysates. Briefly, SW-480 colon adenocarcinoma cells were plated in 96-well microtitre plates (“MTP”) at a density of 10K cells/well in 180 μl and incubated for 24 hrs. Cells were then treated with 20 μl aliquots of appropriately diluted compound, and allowed to incubate for an additional 48 hrs.
# After the incubation, samples were prepared according to the following steps. The MTP was centrifuged (15 min., 1000 rpm) and the supernatant was carefully removed by fast inversion of the MTP. The cell pellents in each well were then resuspended in ^200 μl lysis buffer and incubated for 45 min. at room temperature to lyse the cells. The lysates were then centrifuged (15 min., 1000 rpm) and 20 μl aliquots of the supernatant (=cytoplasmic fraction) were transferred into the streptavidin coated MTP for analysis. Care was taken not to shake the lysed pellets in the MTP (=cell nucleii containing high molecular weight, unfragmented DNA). Samples were analyzed immediately, because storage at 4 C or −20 C reduces the ELISA-signals.
# Samples were then processed according to a DNA fragmentation assay protocol, and dose-response curves were generated based on optical density readings. Quantification of DNA was done by a commercially available photometric enzyme-immunoassay manufactured by Mannheim-Boehringer under the name “Cell Death Detection ELISA^plus”. The assay is based on a quantitative sandwich-enzyme-immunoassay-principle using mouse monoclonal antibodies directed against DNA and histones, respectively. This allows the specific determination of mono and oligonucleosomes in the cytoplasmatic fraction of cell lysates. In brief, the assay procedure is as follows. The sample (cell-lysate, serum, culture-supernatant etc.) is placed into a streptavidin-coated MTP. Subsequently, a mixture of anti-histone-biotin and anti-DNA-POD are added and incubated for 2 hours. During the incubation period, the anti-histone antibody binds to the histone-component of the nucleosomes and simultaneously fixes the immunocomplex to the streptavidin-coated MTP via its biotinylation. Additionally, the anti-DNA-POD antibody reacts with the DNA component of the nucleosomes. After removal of unbound antibodies by a washing step, the amount of nucleosomes is quantified by the POD retained in the immunocomplex. POD is determined photometrically with ABTS® (2,2′-Azino-di[3-ethylbenzthiazolin-sulfonat])* as substrate.
# Fold stimulation (FS=ODmax/ODveh), an indicator of apoptotic response, was determined for each compound tested. EC50 values were determined either specifically by data analysis software, or by estimates based on the effective concentration range of each compound (ECR=min. effective dose-min. dose to peak effect). These FS and EC50 values for the tested compounds are listed above in Table 6.
IC50 [2] [nM],COX I % Inhibition (100 μM) [3] [%],SMILES,Morphology % Apoptotic Cells (1 μM) [1] [%],EC50 [4] [nM],DNA Fragmentation FS (100 μM) [4]
360,<25,"COc1cc(/C=C2/C(C)=C(CC(=O)NCc3ccccc3Cl)c3cc(F)ccc32)cc(OC)c1OC [Example 4, (Z)-5-fluoro-2-methyl-1-(3,4,5-trimethoxybenzylidene)-3-(N-2-chlorobenzyl)-indenylacetamide]",68,250,2.4
120,<25,"COc1cc(/C=C2/C(C)=C(CC(=O)NCc3cc(F)ccc3F)c3cc(F)ccc32)cc(OC)c1OC [Example 8, (Z)-5-fluoro-2-methyl-1-(3,4,5-trimethoxybenzylidene)-3-(N-2,5-difluorobenzyl)-indenylacetamide]",48,210,<2
390,<25,"COc1ccccc1CNC(=O)CC1=C(C)/C(=C/c2cc(OC)c(OC)c(OC)c2)c2ccc(F)cc21 [Example 15, (Z)-5-fluoro-2-methyl-1-(3,4,5-trimethoxybenzylidene)-3-(N-2-methoxybenzyl)-indenylacetamide]",72,300,2.1
8000,<25,"COc1cc(/C=C2/C(C)=C(CC(=O)Nc3ccc(Br)cc3)c3cc(F)ccc32)cc(OC)c1OC [Example 23, (Z)-5-fluoro-2-methyl-1-(3,4,5-trimethoxybenzylidene)-3-(N-4-bromophenyl)-indenylacetamide]",,,
,<25,"CCN(CC)C(=O)CC1=C(C)/C(=C/c2cc(OC)c(OC)c(OC)c2)c2ccc(F)cc21 [Example 24, (Z)-5-fluoro-2-methyl-1-(3,4,5 trimethoxybenzylidene)-3-(N,N-diethyl)-indenylacetamide]",,,
,25,"COc1cc(/C=C2/C(C)=C(CC(=O)NC(C)(C)C)c3cc(F)ccc32)cc(OC)c1OC [Example 25, (Z)-5-fluoro-2-methyl-1-(3,4,5-trimethoxybenzylidene)-3-(N-tertbutyl)-indenylacetamide]",,,
,28.1,"COc1cc(/C=C2/C(C)=C(CC(=O)N(C3CCCCC3)C3CCCCC3)c3cc(F)ccc32)cc(OC)c1OC [Example 26, (Z)-5-fluoro-2-methyl-1-(3,4,5-trimethoxybenzylidene)-3-(N,N-dicyc1ohexyl)-indenylacetamide]",,,
,<25,"COc1cc(/C=C2/C(C)=C(CC(=O)NCc3ccco3)c3cc(F)ccc32)cc(OC)c1OC [Example 29, (Z)-5-fluoro-2-methyl-1-(3,4,5-trimethoxybenzylidene)-3-(N-furfuryl)-indenylacetamide]",,,
,<25,"COc1cc(/C=C2/C(C)=C(CC(=O)NCC3CC3)c3cc(F)ccc32)cc(OC)c1OC [Example 30, (Z)-5-fluoro-2-methyl-1-(3,4,5-trimethoxybenzylidene)-3-(N-cyclopropylmethyl)-indenylacetamide]",,,
,<25,"COc1cc(/C=C2\C(C)=C(CC(=O)NCc3ccccc3)c3cc(F)ccc32)cc(OC)c1OC [Example 52, (E)-5-Fluoro-2-methyl-1-(3,4,5-trimethoxybenzylidene)-3-(N-benzyl)-indenylacetamide]",,,
500,<25,"COc1cc(OC)c(/C=C2/C(C)=C(CC(=O)NCc3ccccc3)c3cc(F)ccc32)c(OC)c1 [Example 55, (Z)-5-fluoro-2-methyl-1-(2,4,6-trimethoxybenzylidene)-3-(N-benzyl)-indenylacetamide]",,,

SMILES,IC50 [2] [nM],COX I % Inhibition (100 μM) [3] [%],Morphology % Apoptotic Cells (1 μM) [1] [%],EC50 [4] [nM],DNA Fragmentation FS (100 μM) [4]
"COc1cc(/C=C2/C(C)=C(CC(=O)NCc3ccccc3)c3cc(F)ccc32)cc(OC)c1OC [Example 1, (Z)-5-fluoro-2-methyl-1-(3,4,5-trimethoxybenzylidene)-3-(N-Benzyl)-indenylacetamide]",40,<25,73,50,4.6
"COc1cc(/C=C2/C(C)=C(CC(=O)NCc3cccnc3)c3cc(F)ccc32)cc(OC)c1OC [Example 49, (Z)-5 fluoro-2-methyl-1-(3,4,5 trimetboxybenzylidene)-3-(N-3-pyridinyl)-idenylacetamide]",,25,,,
COc1cc(/C=C2/C(C)=C(CC(=O)NCc3ccncc3)c3cc(F)ccc32)cc(OC)c1OC [Example 50],,29.2,,,

# — patent US6403831B1, “Substituted benzylidene indenyl formamides, acetamides and propionamides” (Cell Pathways, Inc., priority 1996, dated 2002)
